Test results as given in patent publication US4698352A, “4-oxo-1,4-dihydronicotinic acid derivatives, salts thereof, and antibacterial agents containing the same” (Toyama Chemical Co., Ltd., priority 1982, dated 1987).
In brackets after ≈: the same amount, converted by molar mass. Where two headings read alike, the source gives them in different places.

Assays:
Experiment in all cases: Antibacterial activity (MIC), agar dilution
Format in all cases: cell-based
Ent. cloacae IID977 = conditions: Enterobacter cloacae, IID977, 20 h
Excerpt: (§1) The amount of bacteria inoculated was 10^4 cells per plate (10^6 cells per ml).

Ps. aeruginosa S-68 = conditions: Pseudomonas aeruginosa
Excerpt: as §1

E. coli NIHJ JC-2 = conditions: Escherichia coli, NIHJJC2, 20 h
Excerpt: as §1

Pro. vulgaris GN3027 = conditions: Proteus vulgaris, GN3027, 20 h, Pro. vulgaris GN3027; 10^6 cells per ml; 37° C., 20 hours; read-out: MIC
Excerpt: as §1

St. aureus FDA209P = conditions: Staphylococcus aureus, FDA209P, 20 h, St. aureus FDA209P; 10^6 cells per ml; 37° C., 20 hours; read-out: MIC
Excerpt: as §1

E. coli TK-111 = conditions: Escherichia coli, TK111, 20 h, E. coli TK-111; 10^6 cells per ml; 37° C., 20 hours; read-out: MIC
Excerpt: as §1

Kl. pneumoniae Y-41 = conditions: Klebsiella pneumoniae, Y41, 10^6 cells per ml, 37° C., 20 hours, read-out: MIC
Excerpt: as §1

Pro. morganii T-216 = conditions: Morganella morganii, 37° C.
Excerpt: as §1

Pro. mirabilis T-111 = conditions: Proteus mirabilis, 37° C.
Excerpt: as §1

Kl. pneumoniae Y-50 = conditions: Klebsiella pneumoniae, Y50, 20 h, 10^6 cells per ml, 37° C., read-out: MIC
Excerpt: as §1

Ps. aeruginosa IFO3445 = conditions: Pseudomonas aeruginosa
Excerpt: as §1

E. coli GN5482** = conditions: Escherichia coli, 20 h; E. coli GN5482, cephalospolinase-producing; 10^6 cells per ml; read-out: MIC
Excerpt: as §1
(§2) ** Cephalospolinase-producing bacteria

Ps. aeruginosa GN918** = conditions: Pseudomonas aeruginosa, 20 h; Ps. aeruginosa GN918, cephalospolinase-producing; 10^6 cells per ml; read-out: MIC
Excerpt: as §1, §2

Pro. vulgaris GN76** = conditions: Proteus vulgaris, 20 h; Pro. vulgaris GN76, cephalospolinase-producing; 10^6 cells per ml; read-out: MIC
Excerpt: as §1, §2

Kl. pneumoniae Y-4* = conditions: Klebsiella pneumoniae, 20 h, Kl. pneumoniae Y-4, penicillinase-producing; 10^6 cells per ml; read-out: MIC
Excerpt: as §1
(§3) * Penicillinase-producing bacteria

Ps. aeruginosa GN3379* = conditions: Pseudomonas aeruginosa, Ps. aeruginosa GN3379, penicillinase-producing, 10^6 cells per ml
Excerpt: as §1, §3

E. coli TK-3* = conditions: Escherichia coli, 20 h
Excerpt: as §1, §3

St. aureus F-137* = conditions: Staphylococcus aureus, 20 h, St. aureus F-137, penicillinase-producing; 10^6 cells per ml; read-out: MIC
Excerpt: as §1, §3

Aci. antitratus A-6 = conditions: 20 h, Aci. antitratus A-6; 10^6 cells per ml; 37° C., 20 hours; read-out: MIC
Excerpt: as §1

[1] = Ent. cloacae IID977, 10^6 cells per ml, 37° C., 20 hours, read-out: MIC
[2] = S68, Ps. aeruginosa S-68, 10^6 cells per ml, 37° C., 20 hours, read-out: MIC
[3] = E. coli NIHJ JC-2, 10^6 cells per ml, 37° C., 20 hours, read-out: MIC
[4] = T216, 10^6 cells per ml, 20 hours, read-out: MIC
[5] = T111, 10^6 cells per ml, 20 hours, read-out: MIC
[6] = Ps. aeruginosa IFO3445, 10^6 cells per ml, 37° C., 20 hours, read-out: MIC
[7] = E. coli TK-3, penicillinase-producing, 10^6 cells per ml, read-out: MIC

SMILES | MIC (Ps. aeruginosa S-68; S68, 20 h) [mg/L] | MIC (Pro. vulgaris GN3027) [mg/L] | MIC (St. aureus FDA209P) [mg/L] | MIC (E. coli TK-111) [mg/L] | MIC (Kl. pneumoniae Y-41) [mg/L] | MIC (Pro. mirabilis T-111; T111, 20 h, 10^6 cells per ml) [mg/L] | MIC (Kl. pneumoniae Y-50) [mg/L] | MIC (Ps. aeruginosa IFO3445; IFO3445, 20 h) [mg/L] | MIC (E. coli GN5482**) [mg/L] | MIC (Ps. aeruginosa GN918**) [mg/L] | MIC (Pro. vulgaris GN76**) [mg/L] | MIC (Kl. pneumoniae Y-4*) [mg/L] | MIC (Ps. aeruginosa GN3379*; GN3379, 20 h) [mg/L] | MIC (St. aureus F-137*) [mg/L] | MIC (Ent. cloacae IID977; [1]) [mg/L] | MIC (E. coli NIHJ JC-2; [3]) [mg/L] | MIC (Pro. morganii T-216; [4]) [mg/L] | MIC (Ps. aeruginosa GN3379*; 20 h, read-out: MIC) [mg/L] | MIC (E. coli TK-3*; [7]) [mg/L] | MIC (Aci. antitratus A-6) [mg/L] | other results
O=C(O)c1cn(-c2ccc(F)cc2)c(-c2cc3ccccc3s2)cc1=O | 6.25 (≈ 17.1 µM) | 0.39 (≈ 1.07 µM) | 0.78 (≈ 2.13 µM) | 0.78 (≈ 2.13 µM) | 6.25 (≈ 17.1 µM) | 3.13 (≈ 8.57 µM) | 3.13 (≈ 8.57 µM) | 12.5 (≈ 34.2 µM) | 0.39 (≈ 1.07 µM) | 1.56 (≈ 4.27 µM) | 1.56 (≈ 4.27 µM) | 12.5 (≈ 34.2 µM) | 12.5 (≈ 34.2 µM) | 0.39 (≈ 1.07 µM) |  |  |  |  |  |  | MIC (Ent. cloacae IID977): 3.13 mg/L (≈ 8.57 µM); MIC (E. coli NIHJ JC-2): 3.13 mg/L (≈ 8.57 µM); MIC (Pro. morganii T-216; T216, 20 h, 10^6 cells per ml): 3.13 mg/L (≈ 8.57 µM); MIC (E. coli TK-3*): 3.13 mg/L (≈ 8.57 µM)
Cc1cc(O)ccc1-n1cc(C(=O)O)c(=O)cc1-c1ccc(-c2cccs2)cc1 |  | ≤ 0.05 | ≤ 0.05 | ≤ 0.05 | 0.78 (≈ 1.93 µM) |  | 0.39 (≈ 0.967 µM) |  | ≤ 0.05 | 0.78 (≈ 1.93 µM) | 0.2 (≈ 0.496 µM) | 0.78 (≈ 1.93 µM) |  | ≤ 0.05 | 0.39 (≈ 0.967 µM) | 0.1 (≈ 0.248 µM) | 0.39 (≈ 0.967 µM) | 3.13 (≈ 7.76 µM) | 0.39 (≈ 0.967 µM) |  | MIC (Ps. aeruginosa S-68; [2]): 1.56 mg/L (≈ 3.87 µM); MIC (Pro. mirabilis T-111; [5]): 0.39 mg/L (≈ 0.967 µM); MIC (Ps. aeruginosa IFO3445; [6]): 6.25 mg/L (≈ 15.5 µM)
O=C(O)c1cn(-c2ccc(O)cc2)c(-c2ccc3ccsc3c2)cc1=O | 1.56 (≈ 4.29 µM) | ≤ 0.05 | 0.1 (≈ 0.275 µM) | ≤ 0.05 | 0.78 (≈ 2.15 µM) | 1.56 (≈ 4.29 µM) | 0.39 (≈ 1.07 µM) | 1.56 (≈ 4.29 µM) | ≤ 0.05 | 0.78 (≈ 2.15 µM) | 0.39 (≈ 1.07 µM) | 1.56 (≈ 4.29 µM) |  | 0.1 (≈ 0.275 µM) | 0.39 (≈ 1.07 µM) | 0.2 (≈ 0.55 µM) | 0.39 (≈ 1.07 µM) | 3.13 (≈ 8.61 µM) | 0.39 (≈ 1.07 µM) |  | 
CC(=O)Oc1ccc(-n2cc(C(=O)O)c(=O)cc2-c2cc3ccccc3o2)cc1 | 6.25 (≈ 16.1 µM) | 0.39 (≈ 1 µM) | 0.39 (≈ 1 µM) | 0.78 (≈ 2 µM) | 6.25 (≈ 16.1 µM) | 6.25 (≈ 16.1 µM) | 0.78 (≈ 2 µM) | 6.25 (≈ 16.1 µM) | 0.2 (≈ 0.514 µM) |  | 1.56 (≈ 4.01 µM) | 12.5 (≈ 32.1 µM) | 6.25 (≈ 16.1 µM) | 0.39 (≈ 1 µM) | 3.13 (≈ 8.04 µM) | 1.56 (≈ 4.01 µM) | 3.13 (≈ 8.04 µM) |  | 3.13 (≈ 8.04 µM) | 0.78 (≈ 2 µM) | 
COc1ccc(-c2ccc(-c3cc(=O)c(C(=O)O)cn3-c3ccc(O)cc3)s2)cc1 | 1.56 (≈ 3.72 µM) | 0.2 (≈ 0.477 µM) | 0.1 (≈ 0.238 µM) | 0.1 (≈ 0.238 µM) | 1.56 (≈ 3.72 µM) | 1.56 (≈ 3.72 µM) | 0.78 (≈ 1.86 µM) | 3.13 (≈ 7.46 µM) | ≤ 0.05 |  | 0.39 (≈ 0.93 µM) | 3.13 (≈ 7.46 µM) |  | 0.1 (≈ 0.238 µM) | 0.78 (≈ 1.86 µM) | 0.39 (≈ 0.93 µM) | 0.78 (≈ 1.86 µM) | 6.25 (≈ 14.9 µM) | 0.78 (≈ 1.86 µM) | 0.39 (≈ 0.93 µM) | 
CN(C)c1ccc(-c2cc(=O)c(C(=O)O)cn2-c2ccc(O)cc2F)cc1 |  | ≤ 0.05 | ≤ 0.05 | ≤ 0.05 | 3.13 (≈ 8.5 µM) |  | 0.2 (≈ 0.543 µM) |  | ≤ 0.05 |  | 0.2 (≈ 0.543 µM) | 0.78 (≈ 2.12 µM) | 3.13 (≈ 8.5 µM) | ≤ 0.05 | 0.2 (≈ 0.543 µM) | 0.1 (≈ 0.271 µM) | 0.78 (≈ 2.12 µM) |  | 0.2 (≈ 0.543 µM) | 0.1 (≈ 0.271 µM) | MIC (Ps. aeruginosa S-68; [2]): 0.78 mg/L (≈ 2.12 µM); MIC (Pro. mirabilis T-111; [5]): 0.78 mg/L (≈ 2.12 µM); MIC (Ps. aeruginosa IFO3445; [6]): 1.56 mg/L (≈ 4.23 µM)
O=C(O)c1cn(-c2ccc(O)cc2)c(-c2ccc(-c3ccc(O)cc3)s2)cc1=O | 6.25 (≈ 15.4 µM) | 0.39 (≈ 0.962 µM) | 0.1 (≈ 0.247 µM) | ≤ 0.05 | 3.13 (≈ 7.72 µM) | 6.25 (≈ 15.4 µM) | 0.78 (≈ 1.92 µM) | 3.13 (≈ 7.72 µM) | ≤ 0.05 |  | 0.78 (≈ 1.92 µM) | 6.25 (≈ 15.4 µM) | 3.13 (≈ 7.72 µM) | 0.2 (≈ 0.493 µM) | 1.56 (≈ 3.85 µM) | 0.39 (≈ 0.962 µM) | 1.56 (≈ 3.85 µM) |  | 0.78 (≈ 1.92 µM) | 0.78 (≈ 1.92 µM) | 
